Measured values as given in US20140135319A1, “6-SUBSTITUTED IMIDAZOPYRAZINES FOR USE AS MPS-1 AND TKK INHIBITORS IN THE TREATMENT OF HYPERPROLIFERATIVE DISORDERS” (BAYER INTELLECTUAL PROPERTY GMBH, priority 2010, published 2014).
pIC50: −log10 of the molar value.

Target: T1, human kinase Mps-1 (Homo sapiens, UniProt P33981)
T1 construct: N-terminally GST-tagged human full length recombinant Mps-1 kinase; GST (N); purchased Invitrogen, Karslruhe, Germany PV4071
T1 sequence (P33981 1-857): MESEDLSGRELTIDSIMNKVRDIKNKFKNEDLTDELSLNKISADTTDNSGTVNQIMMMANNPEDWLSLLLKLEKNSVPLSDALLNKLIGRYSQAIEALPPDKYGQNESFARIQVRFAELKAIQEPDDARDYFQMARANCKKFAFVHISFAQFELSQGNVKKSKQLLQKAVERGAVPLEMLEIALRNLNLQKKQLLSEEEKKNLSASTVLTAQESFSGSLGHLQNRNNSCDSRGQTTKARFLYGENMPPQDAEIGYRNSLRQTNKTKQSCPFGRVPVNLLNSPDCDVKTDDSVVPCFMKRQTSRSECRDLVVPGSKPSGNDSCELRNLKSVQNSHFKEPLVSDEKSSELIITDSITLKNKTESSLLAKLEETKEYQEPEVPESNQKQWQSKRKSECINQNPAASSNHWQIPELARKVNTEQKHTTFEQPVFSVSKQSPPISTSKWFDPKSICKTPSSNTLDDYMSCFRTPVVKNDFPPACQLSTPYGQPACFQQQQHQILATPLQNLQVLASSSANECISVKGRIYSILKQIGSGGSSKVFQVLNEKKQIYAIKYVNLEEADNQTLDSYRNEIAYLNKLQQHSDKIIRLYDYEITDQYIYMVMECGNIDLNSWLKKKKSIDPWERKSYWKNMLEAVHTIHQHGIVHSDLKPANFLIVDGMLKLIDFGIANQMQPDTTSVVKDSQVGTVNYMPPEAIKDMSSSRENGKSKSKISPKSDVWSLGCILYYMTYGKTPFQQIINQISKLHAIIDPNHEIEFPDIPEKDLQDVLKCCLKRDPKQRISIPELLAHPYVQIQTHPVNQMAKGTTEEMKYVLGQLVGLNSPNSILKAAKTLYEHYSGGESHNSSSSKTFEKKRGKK
Assay: Mps-1 kinase assay (TR-FRET)
Type: biochemical
Details: GST-tagged human full length recombinant Mps-1; 10 μM ATP; 1 μM peptide substrate; 60 min at 22° C.
Procedure, shortened: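 TR-FRET read-out: after 1 h binding at 22° C, Eu-labelled anti-phospho-Ser/Thr antibody transfers to SA-XLent on the phosphorylated biotinylated peptide. The enzyme is GST-tagged full-length human Mps-1, typically about 1 nM final, in the linear range.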

**Q.** With `Cc1cc(-c2cnc3c(NCCC(F)(F)F)nc(C4=CCNCC4)cn23)ccc1C(=O)NC1CC1` [Example 1-76, N-cyclopropyl-2-methyl-4-{6-(1,2,3,6-tetrahydro-pyridin-4-yl)-8-[(3,3,3-trifluoropropyl)amino]imidazo[1,2-a]pyrazin-3-yl}benzamide] as the compound, how does the pIC50 read?
**A.** Its pIC50 is 7.89.

**Q.** With `CC(C)CNc1nc(C2=CCOCC2)cn2c(-c3ccc(C(=O)NC4CC4)c(F)c3)cnc12` [Example 1-52, N-cyclopropyl-4-{6-(3,6-dihydro-2H-pyran-4-yl)-8-[(2-methylpropyl)amino]imidazo[1,2-a]pyrazin-3-yl}-2-fluoro-benzamide] as the compound, how does the pIC50 read?
**A.** Its pIC50 is 8.09.

**Q.** How did the pIC50 turn out when `C=CCOC(=O)CCCNc1nc(-c2ccccc2)cn2c(-c3ccc(C(=O)NC4CC4)cc3)cnc12` [Example 3-44, Allyl 4-({3-[4-(cyclopropylcarbamoyl)phenyl]-6-phenylimidazo[1,2-a]pyrazin-8-yl}amino)butanoate] was run?
**A.** The pIC50 was 7.85.

**Q.** How did the pIC50 turn out when `Cc1cc(-c2cnc3c(NCCC(F)(F)F)nc(-c4ccncc4)cn23)ccc1C(=O)NC1CC1` [Example 1-103, N-cyclopropyl-2-methyl-4-{6-(pyridin-4-yl)-8-[(3,3,3-trifluoropropyl)amino]imidazo[1,2-a]pyrazin-3-yl}benzamide] was run?
**A.** The pIC50 was 8.89.

**Q.** How did the pIC50 turn out when `CC(C)CNc1nc(-c2cncc(F)c2)cn2c(-c3ccc(C(=O)NC4CC4)cc3)cnc12` [Example 1-21, N-cyclopropyl-4-{6-(5-fluoropyridin-3-yl)-8-[(2-methylpropyl)amino]imidazo[1,2-a]pyrazin-3-yl}benzamide] was run?
**A.** Its pIC50 is 7.71.

**Q.** `CC(C)CNc1nc(C2=CCOCC2)cn2c(-c3ccc(C(=O)NC4CC4)c(Cl)c3)cnc12` [Example 1-35, 2-chloro-N-cyclopropyl-4-{6-(3,6-dihydro-2H-pyran-4-yl)-8-[(2-methyl-propyl)amino]imidazo [1,2-a]pyrazin-3-yl} benzamide] was tested. Which pIC50 did it give?
**A.** The pIC50 was 7.94.

**Q.** With `COCCCNc1nc(-c2ccncc2)cn2c(-c3ccc(C(=O)NC4CC4)cc3)cnc12` [Example 3-24, N-cyclopropyl-4-{8-[(3-methoxypropyl)amino]-6-(pyridin-4-yl)imidazo [1,2-a]pyrazin-3-yl} benzamide] as the compound, how does the pIC50 read?
**A.** The pIC50 was 8.26.

**Q.** How did the pIC50 turn out when `O=C(NC1CC1)c1ccc(-c2cnc3c(NCc4ccccn4)nc(-c4ccncc4)cn23)cc1` [Example 3-17, N-cyclopropyl-4-{6-(pyridin-4-yl)-8-[(pyridin-2-ylmethyl)amino]imidazo [1,2-a]pyrazin-3-yl} benzamide] was run?
**A.** The pIC50 was 8.34.

**Q.** `Cn1nccc1CNc1nc(-c2ccoc2)cn2c(-c3ccc(C(=O)NC4CC4)c(Cl)c3)cnc12` [Example 1-47, 2-chloro-N-cyclopropyl-4-[6-(furan-3-yl)-8-{[(1-methyl-1H-pyrazol-5-yl)methyl]amino}imidazo [1,2-a]pyrazin-3-yl] benzamide] was tested. Which pIC50 did it give?
**A.** The pIC50 was 7.59.

**Q.** With `CC(C)CNc1nc(-c2ccn[nH]2)cn2c(-c3ccc(C(=O)NC4CC4)cc3)cnc12` [Example 1-30, N-cyclopropyl-4-{8-[(2-methylpropyl)amino]-6-(1H-pyrazol-5-yl)imidazo[1,2-a]pyrazin-3-yl}benzamide] as the compound, how does the pIC50 read?
**A.** Its pIC50 is 8.77.

**Q.** `CC(C)(O)CNc1nc(-c2ccn[nH]2)cn2c(-c3ccc(C(=O)NC4CC4)c(F)c3)cnc12` [Example 1-59, N-cyclopropyl-2-fluoro-4-{8-[(2-hydroxy-2-methylpropyl)amino]-6-(1H-pyrazol-5-yl)imidazo [1,2-a]pyrazin-3-yl} benzamide] was tested. Which pIC50 did it give?
**A.** The pIC50 was 7.00.

**Q.** `CC(C)CNc1nc(-c2ccoc2)cn2c(-c3ccc(C(=O)NC4CC4)c(Cl)c3)cnc12` [Example 1-33, 2-chloro-N-cyclopropyl-4-{6-(furan-3-yl)-8-[(2-methylpropyl)amino]imidazo[1,2-a]pyrazin-3-yl}benzamide] was tested. Which pIC50 did it give?
**A.** The pIC50 was 7.91.

**Q.** With `O=C(NC1CC1)c1ccc(-c2cnc3c(NCC4CCCO4)nc(-c4ccncc4)cn23)cc1` (stereo not shown) [Example 3-7, N-cyclopropyl-4-{6-(pyridin-4-yl)-8-[(tetrahydrofuran-2-ylmethyl)amino]imidazo[1,2-a]pyrazin-3-yl}benzamide] as the compound, how does the pIC50 read?
**A.** Its pIC50 is 8.62.

**Q.** How did the pIC50 turn out when `CC(C)CNc1nc(-c2cnc3ccccc3c2)cn2c(-c3ccc(C(=O)NC4CC4)cc3)cnc12` [Example 1-2, N-cyclopropyl-4-{8-[(2-methylpropyl)amino]-6-(quinolin-3-yl)imidazo [1,2-a]pyrazin-3-yl} benzamide] was run?
**A.** The pIC50 was 7.36.

**Q.** How did the pIC50 turn out when `Cc1cc(-c2cnc3c(NCC4CCC(N(C)C)CC4)nc(C4=CCOCC4)cn23)ccc1C(=O)NC1CC1` (stereo not shown) [Example 6-18, N-cyclopropyl-4-[6-(3,6-dihydro-2H-pyran-4-yl)-8-({[4-(dimethylamino)cyclohexyl]methyl}amino)imidazo[1,2-a]pyrazin-3-yl]-2-methylbenzamide] was run?
**A.** Its pIC50 is 6.70.

**Q.** With `C[S+]([O-])CCNc1nc(-c2ccncc2)cn2c(-c3ccc(C(=O)NC4CC4)cc3)cnc12` (stereo not shown) [Example 3-25, N-cyclopropyl-4-[8-{[2-(methylsulfinyl)ethyl]amino}-6-(pyridin-4-yl)imidazo[1,2-a]pyrazin-3-yl]benzamide] as the compound, how does the pIC50 read?
**A.** Its pIC50 is 7.71.

**Q.** `O=C(NC1CC1)c1ccc(-c2cnc3c(NCC4CCCO4)nc(-c4ccoc4)cn23)cc1Cl` (stereo not shown) [Example 1-43, 2-chloro-N-cyclopropyl-4-{6-(furan-3-yl)-8-[(tetrahydrofuran-2-ylmethyl)amino]imidazo [1,2-a]pyrazin-3-yl} benzamide] was tested. Which pIC50 did it give?
**A.** The pIC50 was 7.37.

**Q.** `NC/C=C/CCNc1nc(-c2ccccc2)cn2c(-c3ccc(C(=O)NC4CC4)cc3)cnc12` [Example 4-2, 4-(8-{[(3E)-5-aminopent-3-en-1-yl]amino}-6-phenylimidazo[1,2-a]pyrazin-3-yl)-N-cyclopropylbenzamide] was tested. Which pIC50 did it give?
**A.** The pIC50 was 8.36.

**Q.** `O=C(NC1CC1)c1ccc(-c2cnc3c(NCC(F)F)nc(-c4ccncc4)cn23)cc1` [Example 3-26, N-cyclopropyl-4-{8-[(2,2-difluoroethyl)amino]-6-(pyridin-4-yl)imidazo [1,2-a]pyrazin-3-yl} benzamide] was tested. Which pIC50 did it give?
**A.** The pIC50 was 8.27.

**Q.** With `Cc1cc(-c2cnc3c(NCCC(F)(F)F)nc(-c4cncnc4)cn23)ccc1C(=O)NC1CC1` [Example 1-73, N-cyclopropyl-2-methyl-4-{6-(pyrimidin-5-yl)-8-[(3,3,3-trifluoropropyl)amino]imidazo[1,2-a]pyrazin-3-yl}benzamide] as the compound, how does the pIC50 read?
**A.** The pIC50 was 7.67.

**Q.** `NS(=O)(=O)CCNc1nc(-c2ccncc2)cn2c(-c3ccc(C(=O)NC4CC4)cc3)cnc12` [Example 3-35, N-cyclopropyl-4-{6-(pyridin-4-yl)-8-[(2-sulfamoylethyl)amino]imidazo [1,2-a]pyrazin-3-yl} benzamide] was tested. Which pIC50 did it give?
**A.** Its pIC50 is 8.72.

**Q.** With `CC(C)CNc1nc(-c2ccsc2)cn2c(-c3ccc(C(=O)NC4CC4)cc3)cnc12` [Example 1-10, N-cyclopropyl-4-{8-[(2-methylpropyl)amino]-6-(thiophen-3-yl)imidazo [1,2-a]pyrazin-3-yl} benzamide] as the compound, how does the pIC50 read?
**A.** The pIC50 was 8.47.

**Q.** With `CC(C)CNc1nc(-c2ccnc3ccccc23)cn2c(-c3ccc(C(=O)NC4CC4)cc3)cnc12` [Example 1-4, N-cyclopropyl-4-{8-[(2-methylpropyl)amino]-6-(quinolin-4-yl)imidazo [1,2-a]pyrazin-3-yl} benzamide] as the compound, how does the pIC50 read?
**A.** Its pIC50 is 8.48.

**Q.** How did the pIC50 turn out when `Cc1cc(-c2cnc3c(NC[C@H](O)C(F)(F)F)nc(-c4ccnn4C)cn23)ccc1C(=O)NC1CC1` [Example 3-38, N-cyclopropyl-2-methyl-4-{6-(1-methyl-1H-pyrazol-5-yl)-8-[(3,3,3-trifluoro-2-hydroxypropyl)amino]imidazo[1,2-a]pyrazin-3-yl}benzamide] was run?
**A.** The pIC50 was 8.14.

**Q.** With `CC(C)(O)CNc1nc(-c2ccncc2)cn2c(-c3ccc(C(=O)NC4CC4)cc3)cnc12` [Example 1-90, N-cyclopropyl-4-{8-[(2-hydroxy-2-methylpropyl)amino]-6-(pyridin-4-yl)imidazo[1,2-a]pyrazin-3-yl} benzamide] as the compound, how does the pIC50 read?
**A.** The pIC50 was 8.30.

**Q.** `Cn1nccc1CNc1nc(-c2cccc(CC(N)=O)c2)cn2c(-c3ccc(C(=O)NC4CC4)cc3)cnc12` [Example 1-92, 4-(6-[3-(2-Amino-2-oxo-ethyl)phenyl]-8-{[(1-methyl-1H-pyrazol-5-yl)methyl]amino}imidazo[1,2-a]pyrazin-3-yl)-N-cyclopropyl benzamide] was tested. Which pIC50 did it give?
**A.** The pIC50 was 8.42.

**Q.** `CC(C)CNc1nc(C(=O)N2CCCCC2)cn2c(-c3ccc(C(=O)NC4CC4)cc3)cnc12` [Example 8-3, N-cyclopropyl-4-{8-[(2-methylpropyl)amino]-6-(piperidin-1-ylcarbonyl)imidazo[1,2-a]pyrazin-3-yl}benzamide] was tested. Which pIC50 did it give?
**A.** The pIC50 was 7.69.

**Q.** With `CC(C)CNc1nc(-c2ccnn2C)cn2c(-c3ccc(C(=O)NC4CC4)cc3)cnc12` [Example 1-13, N-cyclopropyl-4-{8-[(2-methylpropyl)amino]-6-(1-methyl-1H-pyrazol-5-yl)imidazo[1,2-a]pyrazin-3-yl}benzamide] as the compound, how does the pIC50 read?
**A.** Its pIC50 is 7.53.
